Eleven compounds from patent US10206908B2, “3-(1H-pyrrolo[3,2-C]pyridin-2-YL)-1H-pyrazolo[3,4-C]pyridines and therapeutic uses thereof” (Samumed, LLC, priority 2015, dated 2019) can be followed below.

pEC50: −log10 of the molar value.

Type in all cases: cell-based
For assay [1], the system named is primary human mesenchymal stem cells (hMSCs). The experiment in a line: Induction of chondrogenesis in hMSCs (chondrogenic nodules, Rhodamine B/Nile Red). As to conditions: 6 days; for EC50: concentration required to induce 50% levels of chondrogenesis vs TGF-β3, read-out: Conc (nM) of 50% TGF-β3 activity; for Emax: relative to TGF-β3 (10 ng/mL) positive control, read-out: Max. Activity as % TGF-β3 activity. From the text:
Representative compounds were screened using primary human mesenchymal stem cells (hMSCs) to determine their ability to induce chondrogenesis (process by which cartilage is developed).
Human Mesenchymal Stem Cell Culture: Primary human mesenchymal stem cells (hMSCs) were purchased from Lonza (Walkersville, Md.) and expanded in Mesenchymal Stem Cell Growth Media (Lonza). Cells between passage 3 and 6 were used for the experiments.
Number of nodules in each well was normalized to the average of 3 DMSO treated wells on the same plate using Excel (Microsoft Inc.). The normalized averages (fold change over DMSO) of 3 replicate wells for each compound concentration were calculated. Due to solubility limitations of some of the compounds, curve fitting was incomplete leading to inaccurate EC50 determinations.
Using TGF-β3 as a positive control, the concentration of representative compounds required to induce 50% levels of chondrogenesis is reported. In addition, the maximum activity of each compound and the respective dose that each compound reached maximum chondrogenesis activity is reported.

The next assay deals with SW480 colon cancer cells. In words: Cell viability assay (CellTiter-Blue) in SW480 colon cancer cells. To be noted: Homo sapiens; for pEC50: 96 h, SW480 cell viability, four days; for inhibition at 10 µM: SW480, read-out: percent inhibition at 10 μM. On the procedure:
Representative compounds were screened using the following assay procedure to assess the effect on cell viability as described below.
Approximately 2×10^3 SW480 colon cancer cells were seeded into each well and allowed to incubate in the presence or absence of compound for four days at 37° C./5% CO2. Eight replicates of DMSO-treated cells served as controls and cells treated with compound were performed in duplicate.
After incubation, 20 μL of CellTiter-Blue (Promega) was added to each well allowed to incubate for approximately 3 hours. This reagent was a buffered solution which contains resazurin, metabolically active cells were able to reduce rezarurin (blue) into resorufin (pink) which was highly fluorescent. This measured fluorescence was used as a readout for cell viability.
(In general: Alamar Blue is a resazurin reagent that responds to reducing activity.)

The next assay has as its system IL-6 (THP-1 cells). The experiment in a line: IL-6 inhibition in LPS-stimulated THP-1 monocytes (HTRF). To be noted: Homo sapiens; for pEC50: IL-6, THP-1 cells, LPS 500 ng/mL, 22 hours; for inhibition at 10 µM: THP-1, read-out: percent inhibition at 10 μM. On the procedure:
Compound Screening: THP-1 cells were cultured in basal media with 1% FBS for 24 hours before the start of the assay. […] THP-1 cells were plated at 5000 cells/well in the 384-well plates and incubated at 37° C. for 2 h. 500 ng/mL of LPS was added after 2 hours and cells were incubated for another 22 hours at 37° C. Plates were spun in a centrifuge for 1 minute at […] and a mixture of anti-IL6 XL665, and anti-IL6 Cryptate diluted in reconstitution buffer (Cisbio Inc.) was added to each well. Following incubation for 3 hrs at room temperature, Homogeneous Time-Resolved Fluorescence (HTRF) was measured using the Envision (Perkin Elmer) at 665 nm and […]. The ratio of fluorescence at 665 nm to 620 nm was used as a readout for IL6 quantification. All samples were processed in duplicate. Readings were normalized to DMSO treated cells and normalized activities were utilized for EC50 calculations using the dose-response log (inhibitor) vs. response-variable slope (four parameters) nonlinear regression feature available in GraphPad Prism 5.0 (or Dotmatics).

For assay [2], the system named is Wnt activity (Sp5-Luc reporter, SW480 colon carcinoma cells). The experiment in a line: Screening assay for Wnt activity: Sp5-Luc reporter gene assay in SW480 colon carcinoma cells. As to conditions: Homo sapiens; for pEC50: Sp5-Luc reporter, SW480 cells, overnight incubation. The text has this:
The screening assay for Wnt activity is described as follows. Reporter cell lines can be generated by stably transducing cancer cell lines (e.g., colon cancer) or primary cells (e.g., IEC-6 intestinal cells) with a lentiviral construct that includes a Wnt-responsive promoter driving expression of the firefly luciferase gene.
SW480 colon carcinoma cells were transduced with a lentiviral vector expressing luciferase with a human Sp5 promoter consisting of a sequence of eight TCF/LEF binding sites. SW480 cells stably expressing the Sp5-Luc reporter gene and a hygromycin resistance gene were selected by treatment with 150 μg/mL of hygromycin for 7 days. These stably transduced SW480 cells were expanded in cell culture and used for all further screening activities. […] For Sp5-Luc reporter gene assays, the cells were plated at 4,000 cells/well in 384-well plates with medium containing 1% fetal bovine serum and incubated overnight at 37° C. and 5% CO2. Following incubation, 20 μl of BrightGlo luminescence reagent (Promega) was added to each well of the 384-well assay plates. The plates were placed on an orbital shaker for 2 min and then luminescence was quantified using the Envision (Perkin Elmer) plate reader. Readings were normalized to DMSO only treated cells, and normalized activities were utilized for EC50 calculations using the dose-response log (inhibitor) vs. response-variable slope (four parameters) nonlinear regression feature available in GraphPad Prism 5.0 (or Dotmatics).

Assay [3] concerns primary human fibroblasts derived from IPF patients (LL29 cells) treated with TGF-β1. The experiment in a line: Inhibition of the fibrotic process: αSMA staining in TGF-β1 treated LL29 fibroblasts. As to conditions: Fibroblast, 96 h, % αSMA positive LL29 cells, TGF-β1 20 ng/mL, 4 days. As to the method: Representative compounds were screened using primary human fibroblasts (derived from IPF patients) treated with TGF-β1 to determine their ability to inhibit the fibrotic process.
LL29 cells are plated at 1,500 cells/well in 80 μL/well F12 medium supplemented with 1% Fetal Bovine Serum. […] Wells treated with TGF-β1 and containing DMSO were used as controls. […] Following incubation for 4 days, SYTOX green nucleic acid stain (Life Technologies [Thermo Fisher Scientific]) was added to the wells at a final concentration of 1 μM and incubated at room temperature for 30 min.

Consider `CN1CCN(c2nccc3[nH]c(-c4n[nH]c5cnc(-c6cncc(NC(=O)c7ccccc7)c6)cc45)cc23)CC1` [Compound 235, N-(5-(3-(4-(4-Methylpiperazin-1-yl)-1H-pyrrolo[3,2-c]pyridin-2-yl)-1H-pyrazolo[3,4-c]pyridin-5-yl)pyridin-3-yl)benzamide], for which the EC50 in assay [1] turned out to be 10 nM. Also, in assay [1], the Emax came out at 67%. Also, the negative-log EC50 (pEC50) is under 5.00 with SW480 colon cancer cells, 5.87 in the assay on IL-6 (THP-1 cells), 5.55 in assay [2] and 5.61 in assay [3]. Besides, the inhibition at 10 µM in the assay with SW480 colon cancer cells is 21.5%.
For `O=C(Nc1cncc(-c2cc3c(-c4cc5cnccc5[nH]4)n[nH]c3cn2)c1)c1ccccc1` [Compound 263, N-(5-(3-(1H-Pyrrolo[3,2-c]pyridin-2-yl)-1H-pyrazolo[3,4-c]pyridin-5-yl)pyridin-3-yl)benzamide], the EC50 in assay [1] was found to be 10 nM. Further, in assay [1], the Emax was 152%. The pEC50 with SW480 colon cancer cells was under 5.00; in the assay with IL-6 (THP-1 cells) it was under 5.00; in assay [2] it was 6.24; in assay [3] it was 7.01. The values for the inhibition at 10 µM in the assay with SW480 colon cancer cells and in the assay with IL-6 (THP-1 cells) were 8.5% and 10.3%, respectively.
Take `CN(C)Cc1cncc(-c2cc3c(-c4cc5c(-c6cccc(F)c6)nccc5[nH]4)n[nH]c3cn2)c1` [Compound 13, 1-(5-(3-(4-(3-Fluorophenyl)-1H-pyrrolo[3,2-c]pyridin-2-yl)-1H-pyrazolo[3,4-c]pyridin-5-yl)pyridin-3-yl)-N,N-dimethylmethanamine]: the EC50 in assay [1] worked out at 30 nM. In addition, in assay [1], the Emax stood at 60%. Also, the pEC50 is 5.76 in the assay on SW480 colon cancer cells, 6.37 in the assay with IL-6 (THP-1 cells), 5.73 in assay [2] and 8.05 in assay [3].
As for `Cc1ccncc1-c1cc2c(-c3cc4c(-c5ccc(F)cc5)nccc4[nH]3)n[nH]c2cn1` [Compound 33, 3-(4-(4-Fluorophenyl)-1H-pyrrolo[3,2-c]pyridin-2-yl)-5-(4-methylpyridin-3-yl)-1H-pyrazolo[3,4-c]pyridine], in assay [1], the Emax was 24%. For the same compound, the pEC50 in the assay on SW480 colon cancer cells is 6.15; in the assay with IL-6 (THP-1 cells) it was 6.31; in assay [2], 6.23; in assay [3], 6.58.
For the compound `CC(C)CC(=O)Nc1cncc(-c2cc3c(-c4cc5c(-c6ccc(F)cc6)nccc5[nH]4)n[nH]c3cn2)c1` [Compound 30, N-(5-(3-(4-(4-Fluorophenyl)-1H-pyrrolo[3,2-c]pyridin-2-yl)-1H-pyrazolo[3,4-c]pyridin-5-yl)pyridin-3-yl)-3-methylbutanamide], the EC50 in assay [1] worked out at 900 nM. Also, the Emax in assay [1] was 71%. For the same compound, the pEC50 was 6.53 in the assay on SW480 colon cancer cells, 6.17 with IL-6 (THP-1 cells), 6.54 in assay [2] and 6.45 in assay [3].
For the compound `Fc1cccc(-c2nccc3[nH]c(-c4n[nH]c5cnc(-c6cccnc6)cc45)cc23)c1` [Compound 4, 3-(4-(3-Fluorophenyl)-1H-pyrrolo[3,2-c]pyridin-2-yl)-5-(pyridin-3-yl)-1H-pyrazolo[3,4-c]pyridine], the EC50 in assay [1] turned out to be 300 nM. Further, in assay [1], the Emax worked out at 114%. Further, the pEC50 with SW480 colon cancer cells is 6.06; with IL-6 (THP-1 cells), 6.19; in assay [2], 6.30; in assay [3], 7.70.
Turning to `O=C(Nc1cncc(-c2cc3c(-c4cc5c(N6CCCCC6)nccc5[nH]4)n[nH]c3cn2)c1)C1CCC1` [Compound 189, N-(5-(3-(4-(Piperidin-1-yl)-1H-pyrrolo[3,2-c]pyridin-2-yl)-1H-pyrazolo[3,4-c]pyridin-5-yl)pyridin-3-yl)cyclobutanecarboxamide], the Emax in assay [1] is 42%. Moreover, the pEC50 in the assay with SW480 colon cancer cells is 5.31; in the assay with IL-6 (THP-1 cells), 5.46; in assay [2], 5.39; in assay [3], 5.91.
Regarding `CC(C)(C)CC(=O)Nc1cncc(-c2cc3c(-c4cc5c(-c6ccccc6F)nccc5[nH]4)n[nH]c3cn2)c1` [Compound 72, N-(5-(3-(4-(2-fluorophenyl)-1H-pyrrolo[3,2-c]pyridin-2-yl)-1H-pyrazolo[3,4-c]pyridin-5-yl)pyridin-3-yl)-3,3-dimethylbutanamide], in assay [1], the EC50 came out at 30 nM. Also, in assay [1], the Emax came to 54%. For the same compound, the negative-log EC50 (pEC50) with SW480 colon cancer cells was 5.89; with IL-6 (THP-1 cells), 5.96; in assay [2], 5.99; in assay [3] it was 6.03.
Regarding `c1ccc(CNCc2cncc(-c3cc4c(-c5cc6c(-c7ccncc7)nccc6[nH]5)n[nH]c4cn3)c2)cc1` [Compound 136, N-Benzyl-1-(5-(3-(4-(pyridin-4-yl)-1H-pyrrolo[3,2-c]pyridin-2-yl)-1H-pyrazolo[3,4-c]pyridin-5-yl)pyridin-3-yl)methanamine], the EC50 in assay [1] was 900 nM. The Emax in assay [1] was 67%. For the same compound, the negative-log EC50 (pEC50) with SW480 colon cancer cells was under 5.00; with IL-6 (THP-1 cells), under 5.00; in assay [2] it was under 5.00; in assay [3], 6.25. Also, the inhibition at 10 µM worked out at 23% with SW480 colon cancer cells; 0% in the assay with IL-6 (THP-1 cells); 50.4% in assay [2] (SW480, read-out: percent inhibition at 10 μM).
On to `Cc1ccncc1-c1cc2c(-c3cc4cnccc4[nH]3)n[nH]c2cn1` [Compound 257, 5-(4-Methylpyridin-3-yl)-3-(1H-pyrrolo[3,2-c]pyridin-2-yl)-1H-pyrazolo[3,4-c]pyridine], for which the EC50 in assay [1] was 10 nM. Besides, in assay [1], the Emax was 61%. Further, the negative-log EC50 (pEC50) in the assay with SW480 colon cancer cells was 6.10; in the assay on IL-6 (THP-1 cells), 6.03; in assay [2], 6.41; in assay [3] it was 6.42.
Take `CCCCC(=O)Nc1cncc(-c2cc3c(-c4cc5cnccc5[nH]4)n[nH]c3cn2)c1` [Compound 271, N-(5-(3-(1H-Pyrrolo[3,2-c]pyridin-2-yl)-1H-pyrazolo[3,4-c]pyridin-5-yl)pyridin-3-yl)pentanamide]: the Emax in assay [1] was 50%. The pEC50 in the assay on SW480 colon cancer cells is under 5.00; in the assay with IL-6 (THP-1 cells) it was 5.34; in assay [2] it was 5.41; in assay [3] it was 5.33. In the assay with SW480 colon cancer cells, the inhibition at 10 µM stood at 26.2%.

Broadly, the pEC50 is the EC50 on a negative log10 scale, so that one unit is a factor of ten. For orientation: inhibition means how much of the control response was suppressed.
